The target of experiment [1] is T1, human FGFR3 wild type enzyme (cytoplasmic domain) (Homo sapiens, UniProt P22607).
T1 construct: human FGFR3 wild type enzyme (cytoplasmic domain, from Carna Biosciences)
As to the kind of experiment: FGFR3 wild type mobility shift assay (enzymatic assay). The class given is biochemical. Conditions: 75 μM ATP, 50 minutes at 30° C., Caliper EZ reader II. The protocol:
FGFR3 Wild Type Mobility Shift Assay (Enzymatic Assay)
In a final reaction volume of 25 μL, 0.04 ng/μL human FGFR3 wild type enzyme (cytoplasmic domain, from Carna Biosciences) was incubated with 75 μM ATP, 1 μM FL-peptide 30 substrate and 250 nL of testing compound (1% DMSO final) in assay buffer (100 mM HEPES pH 7.4, 10 mM MgCl2, 0.003% Brij35, 1 mM DTT). After incubation for 50 minutes at 30° C. the reaction was stopped with 10 μL of 0.5M EDTA pH 8.0, and then 25 μL of reaction mixture was transferred to reading plate and measured on Caliper EZ reader II.

Experiment [2] concerns the target T2, human FGFR3 V555M enzyme (cytoplasmic domain carrying V555M mutation) (Homo sapiens, UniProt P22607, V555M).
T2 construct: human FGFR3 V555M enzyme (cytoplasmic domain carrying V555M mutation, from Carna Biosciences)
Kind of experiment: FGFR3 V555M mobility shift assay (enzymatic assay). Conditions: 30 μM ATP, 45 minutes at 30° C., Caliper EZ reader II. It counts as biochemical. On the procedure:
FGFR3 V555M Mobility Shift Assay (Enzymatic Assay)
In a final reaction volume of 25 μL, 0.04 ng/μL human FGFR3 V555M enzyme (cytoplasmic domain carrying V555M mutation, from Carna Biosciences) was incubated with 30 μM ATP, 1 μM FL-peptide 30 substrate and 250 nL of testing compound (1% DMSO final) in assay buffer (100 mM HEPES pH 7.4, 10 mM MgCl2, 0.003% Brij35, 1 mM DTT). After incubation for 45 minutes at 30° C. the reaction was stopped with 10 μL of 0.5M EDTA pH 8.0, and then 25 μL of reaction mixture was transferred to reading plate and measured on Caliper EZ reader II.

Experiment [3] concerns the target T3, NIH/3T3 cells overexpressing FGFR3 WT-TACC3 fusion protein (Homo sapiens, UniProt P22607).
T3 construct: fused on or other part: Q9Y6A5 (Transforming acidic coiled-coil-containing protein 3)
As to the kind of experiment: NIH/3T3 FGFR3 WT-TACC3 cell proliferation assay. It counts as cell-based. Conditions: 72-hr incubation, CellTiter Glo; read-out: NIH/3T3 FGFR3 WT-TACC3 CTG (IC50). On the procedure:
NIH/3T3 FGFR3 WT-TACC3 Cell Proliferation Assay
(§1) In day 1, 90 μL of cell suspension (NIH/3T3 cells overexpressing FGFR3 WT-TACC3 fusion protein) (total 30,000 cells per well in growth medium (DMEM containing 1% Glutamax, 10% FBS and 1% Pen/Strep)) was seeded in a 96-well plate and then incubated overnight at 37° C. and 5% CO2. In day 2, 10 μL of growth medium containing 10-fold stock solution of testing compound was added into cell cultures (9 dose points with 4× serial dilution, starting with 10 μM, 0.1% DMSO final). After 72-hr incubation at 37° C. and 5% CO2, in day 5 a volume of 50 μL CellTiter Glo (CTG) reagent was added into cell-containing 96-well plate and the plate was incubated at room temperature for 10 minutes before RLUs (relative light unit) were measured on a microplate reader with luminescence detection module. The RLU value was normalized to survival % and concentration-response curve was plotted using Prism to calculate IC50 (M), pIC50 (−log IC50) and HillSlope value.
Background: In ATP-based viability assays light output follows the ATP content of the culture.

Experiment [4] deals with T4, NIH/3T3 cells overexpressing FGFR3 V555M-TACC3 fusion protein (Homo sapiens, UniProt P22607, V555M, cells depend on it).
T4 construct: fused on or other part: Q9Y6A5 (Transforming acidic coiled-coil-containing protein 3)
Kind of experiment: NIH/3T3 FGFR3 V555M-TACC3 cell proliferation assay. The class given is cell-based. The note with it: 72-hr incubation, CellTiter Glo; read-out: NIH/3T3 FGFR3 V555M-TACC3 CTG (IC50). On the procedure: NIH/3T3 FGFR3 V555M-TACC3 Cell Proliferation Assay
as §1, with “V555M-TACC3” for “WT-TACC3”

SMILES strings stand for the structures.

T2 sequence (P22607 397-806 V555M): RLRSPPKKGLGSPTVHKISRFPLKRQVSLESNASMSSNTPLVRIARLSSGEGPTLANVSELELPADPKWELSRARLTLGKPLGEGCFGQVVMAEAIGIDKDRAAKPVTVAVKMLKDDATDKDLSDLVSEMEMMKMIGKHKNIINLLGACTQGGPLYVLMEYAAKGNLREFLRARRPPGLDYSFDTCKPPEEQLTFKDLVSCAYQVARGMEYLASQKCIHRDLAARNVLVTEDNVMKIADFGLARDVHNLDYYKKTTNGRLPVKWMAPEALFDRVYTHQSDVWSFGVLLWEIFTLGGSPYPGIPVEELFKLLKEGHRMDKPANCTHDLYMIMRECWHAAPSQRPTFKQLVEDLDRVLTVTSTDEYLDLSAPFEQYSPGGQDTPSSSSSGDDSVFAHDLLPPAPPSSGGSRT
T4 sequence (P22607 whole entry V555M, the tested form may be a part): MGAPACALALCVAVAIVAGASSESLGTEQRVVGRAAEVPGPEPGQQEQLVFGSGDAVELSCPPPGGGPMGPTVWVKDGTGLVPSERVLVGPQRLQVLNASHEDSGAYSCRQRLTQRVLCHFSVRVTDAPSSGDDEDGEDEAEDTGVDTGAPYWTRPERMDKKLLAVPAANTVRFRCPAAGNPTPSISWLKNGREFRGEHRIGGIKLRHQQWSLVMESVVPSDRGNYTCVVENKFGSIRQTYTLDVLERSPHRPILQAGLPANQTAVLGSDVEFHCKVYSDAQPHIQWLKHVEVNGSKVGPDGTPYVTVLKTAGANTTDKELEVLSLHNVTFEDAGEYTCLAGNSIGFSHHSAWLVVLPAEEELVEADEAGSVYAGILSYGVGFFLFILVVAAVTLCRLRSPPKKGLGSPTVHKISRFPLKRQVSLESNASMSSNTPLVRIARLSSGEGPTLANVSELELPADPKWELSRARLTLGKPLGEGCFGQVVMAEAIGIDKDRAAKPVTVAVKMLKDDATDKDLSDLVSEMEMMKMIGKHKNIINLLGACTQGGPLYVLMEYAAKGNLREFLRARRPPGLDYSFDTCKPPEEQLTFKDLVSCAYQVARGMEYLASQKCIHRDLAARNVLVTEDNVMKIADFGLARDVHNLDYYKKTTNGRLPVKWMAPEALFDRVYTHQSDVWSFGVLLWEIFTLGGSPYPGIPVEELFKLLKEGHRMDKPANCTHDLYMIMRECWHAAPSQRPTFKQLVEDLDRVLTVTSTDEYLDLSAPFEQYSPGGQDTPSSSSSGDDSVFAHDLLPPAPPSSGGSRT
T3 sequence (P22607 whole entry, change not shown, the tested form may be a part): as the sequence (P22607 whole entry V555M, the tested form may be a part) above, with M555V counted along it
T1 sequence (P22607 397-806): as the sequence (P22607 397-806 V555M) above, with M159V counted along it

In the case of `COc1ccc2nc(-c3c(NC(C)c4ncccn4)c4nn(C)cc4[nH]c3=O)[nH]c2c1` (single isomer, unassigned) [Compound 1, (S*)-6-(6-Methoxy-1H-benzo[d]imidazol-2-yl)-2-methyl-7-((1-(pyrimidin-2-yl)ethyl)-amino)-2H-pyrazolo[4,3-b]pyridin-5(4H)-one], the IC50 (as a rule, the midpoint of a concentration-inhibition curve) in experiment [1] is 0.75 nM; in experiment [2], 0.27 nM. In addition, the GI50 was found to be 4.72 nM in experiment [3] and 4.07 nM in experiment [4].
The matching figures for `CCn1cc2[nH]c(=O)c(-c3nc4cc(OC)c(OC)cc4[nH]3)c(NC(C)c3cocn3)c2n1` (single isomer, unassigned) [Compound 5A, (S*)-6-(5,6-Dimethoxy-1H-benzo[d]imidazol-2-yl)-2-ethyl-7-((1-(oxazol-4-yl)ethyl)amino)-2H-pyrazolo[4,3-b]pyridin-5(4H)-one]: 7.67 nM, 1.56 nM, 33.6 nM and 50.4 nM.
Consider `CCn1cc2[nH]c(=O)c(-c3nc4cc(OC)c(OC)cc4[nH]3)c(NC(C)c3cocn3)c2n1` (single isomer, unassigned) [Compound 5C, (R*)-6-(5,6-Dimethoxy-1H-benzo[d]imidazol-2-yl)-2-ethyl-7-((1-(oxazol-4-yl)ethyl)amino)-2H-pyrazolo[4,3-b]pyridin-5(4H)-one], for which the figures for the IC50 in experiment [1] and in experiment [2] were 978 nM and 315 nM, respectively.
For `CC[C@H](Nc1c(-c2nc3ccc(OC)cc3[nH]2)c(=O)[nH]c2cn(C)nc12)c1ncccn1` (single isomer, unassigned) [Compound 16, (S*)-6-(6-Methoxy-1H-benzo[d]imidazol-2-yl)-2-methyl-7-((1-(pyrimidin-2-yl)propyl)amino)-2H-pyrazolo[4,3-b]pyridin-5(4, H)-one], the IC50 in experiment [1] was found to be 1360 nM; in experiment [2] it was 342 nM.
`CCn1cc2[nH]c(=O)c(-c3nc4ccc(OC)cc4[nH]3)c(N[C@H](C)c3cocn3)c2n1` (single isomer, unassigned) [Compound 34, (R*)-2-ethyl-6-(6-methoxy-H-benzo[d]imidazol-2-yl)-7-((1-(oxazol-4-yl)ethyl)amino)-2H-pyrazolo[4,3-b]pyridin-5(4H)-one]: the IC50 in experiment [1] was 39.5 nM; in experiment [2], 32.8 nM.
Take `COCCOc1cc2[nH]c(-c3c(NC(c4ncccn4)C(C)C)c4nn(C)cc4[nH]c3=O)nc2cc1OC` (single isomer, unassigned) [Compound 36, (S*)-6(5-methoxy-6-(2-methoxyethoxy)-1H-benzo[d]imidazol-2-yl)-2-methyl-7-((2-methyl-1-(pyrimidin-2-yl)propyl)amino)-2H-pyrazolo[4,3-b]pyridin-5(4H)-one]: in experiment [1], the IC50 was 7.75 nM. The figures for the GI50 in experiment [3] and in experiment [4] were 25 nM and 21.5 nM, respectively.
As to `CCC(Nc1c(-c2nc3cc(OC)c(OC)cc3[nH]2)c(=O)[nH]c2cn(CC)nc12)c1ncccn1` (single isomer, unassigned) [Compound 45, (R*)-6-(5,6-dimethoxy-1H-benzo[d]imidazol-2-yl)-2-ethyl-7-((1-(pyrimidin-2-yl)propyl)amino)-2H-pyrazolo[4,3-b]pyridin-5(4H)-one], the figures for the IC50 in experiment [1] and in experiment [2] were 602 nM and 347 nM, respectively.
With `C[C@H](Nc1c(-c2nc3ccc(F)cc3[nH]2)c(=O)[nH]c2cn(C)nc12)c1ncccn1` [Compound 28, (S)-6-(6-Fluoro-1H-benzo[d]imidazol-2-yl)-2-methyl-7-((1-(pyrimidin-2-yl)ethyl)amino)-2H-pyrazolo[4,3-b]pyridin-5(4H)-one], in experiment [1], the IC50 was 7.14 nM. Further, the figures for the GI50 in experiment [3] and in experiment [4] were 73.8 nM and 13.3 nM, respectively.
On to `CCn1cc2[nH]c(=O)c(-c3nc4cc(OC)c(OC)cc4[nH]3)c(N[C@@H](C)c3ncccn3)c2n1` [Compound 37, (S)-6-(5,6-dimethoxy-1H-benzo[d]imidazol-2-yl)-2-ethyl-7-((1-(pyrimidin-2-yl)ethyl)amino)-2H-pyrazolo[4,3-b]pyridin-5(4H)-one], for which the values for the GI50 in experiment [3] and in experiment [4] were 16.8 nM and 29.6 nM, respectively.
As to `CCn1cc2[nH]c(=O)c(-c3nc4c(F)c(OC)c(OC)cc4[nH]3)c(N[C@@H](C)c3ncccn3)c2n1` [Compound 41, (S)-2-ethyl-6-(4-fluoro-5,6-dimethoxy-1H-benzo[d]imidazol-2-yl)-7-((1-(pyrimidin-2-yl)ethyl)amino)-2H-pyrazolo[4,3-b]pyridin-5(4H)-one], the GI50 turned out to be 46.5 nM in experiment [3] and 55.6 nM in experiment [4].
For `CCOc1ccc2nc(-c3c(N[C@@H](C)c4ncccn4)c4nn(CC)cc4[nH]c3=O)[nH]c2c1` [Compound 50, (S)-6-(6-ethoxy-1H-benzo[d]imidazol-2-yl)-2-ethyl-7-((1-(pyrimidin-2-yl)ethyl)amino)-2,4-dihydro-5H-pyrazolo[4,3-b]pyridin-5-one] the same measures were 28.7 nM and 40.9 nM.
For `CCOc1cc2nc(-c3c(N[C@@H](C)c4ncccn4)c4nn(CC)cc4[nH]c3=O)[nH]c2cc1OCC` [Compound 52, (S)-6-(5,6-diethoxy-1H-benzo[d]imidazol-2-yl)-2-ethyl-7-((1-(pyrimidin-2-yl)ethyl)amino)-2H-pyrazolo[4,3-b]pyridin-5(4H)-one] the same measures were 16.1 nM and 18.8 nM.
The matching figures for `CCOc1cc2nc(-c3c(N[C@@H](C)c4ncccn4)c4nn(C)cc4[nH]c3=O)[nH]c2cc1OCC` [Compound 53, (S)-6-(5,6-diethoxy-1H-benzo[d]imidazol-2-yl)-2-methyl-7-((1-(pyrimidin-2-yl)ethyl)amino)-2,4-dihydro-5H-pyrazolo[4,3-b]pyridin-5-one]: 3.19 nM and 4.15 nM.
Turning to `CCn1cc2[nH]c(=O)c(-c3nc4ccc(OCCOC)cc4[nH]3)c(N[C@@H](C)c3ncccn3)c2n1` [Compound 54, (S)-2-ethyl-6-(6-(2-methoxyethoxy)-1H-benzo[d]imidazol-2-yl)-7-((1-(pyrimidin-2-yl)ethyl)amino)-2H-pyrazolo[4,3-b]pyridin-5(4H)-one], the GI50 in experiment [3] turned out to be 11.5 nM; in experiment [4], 21.6 nM.
The matching figures for `COc1cc2[nH]c(-c3c(N[C@@H](C)c4ncccn4)c4nn(C)cc4[nH]c3=O)nc2c(F)c1OC` [Compound 55, (S)-6-(4-fluoro-5,6-dimethoxy-1H-benzo[d]imidazol-2-yl)-2-methyl-7-((1-(pyrimidin-2-yl)ethyl)amino)-2H-pyrazolo[4,3-b]pyridin-5(4H)-one]: 17400 nM and 11.8 nM.
Take `COc1cc2nc(-c3c(N[C@@H](C)c4ccccn4)c4nn(C)cc4[nH]c3=O)[nH]c2cc1OC` [Compound 56, (S)-6-(5,6-dimethoxy-1H-benzo[d]imidazol-2-yl)-2-methyl-7-((1-(pyridin-2-yl)ethyl)amino)-2H-pyrazolo[4,3-b]pyridin-5(4H)-one]: the GI50 in experiment [3] was 18.4 nM; in experiment [4], 13.1 nM.
